For data set [1], the system named is Plasmodium falciparum. Nature of the data set: Antiplasmodial activity against chloroquine sensitive Plasmodium falciparum NF54 infected in human RBC after 48 hrs by [3H]hypoxanthine incorporation assay. The class given is functional, organism-based.
The subject of the next data set is CHO. Nature of the data set: Cytotoxicity against CHO assessed as cell viability after 48 hrs by MTT assay. The class given is cell-based. The following applies: Cricetulus griseus.
Data set [2] can be described thus: Selectivity index, ratio of IC50 for CHO cells to IC50 for Plasmodium falciparum NF54. Type of data set: toxicity, cell-based. The following applies: hamster, read-out: Ratio IC50.
Data set [3] concerns Plasmodium falciparum. Nature of the data set: Antiplasmodial activity against Plasmodium falciparum D10 infected in human RBC after 48 to 96 hrs by SYBR Green I dye-based fluorescence assay. Type of data set: functional, organism-based.
Data set [4] is described as follows: Stability in RPMI medium supplemented with HEPES, NaHCO3, Neomycin and Albumax II after 48 hrs. The class given is physicochemical.

The term pIC50 denotes the negative decadic logarithm of the IC50, by convention in mol/L.

pIC50: −log10 of the molar value.

`CC(=O)O[C@H]1C[C@@]2(C)[C@@H](C[C@@H](O)[C@H]3[C@@]4(C)CC[C@@H](O)[C@@H](C)[C@@H]4CC[C@@]32C)/C1=C(\CCC=C(C)C)c1nc(C)no1`: the pIC50 with Plasmodium falciparum [1] is 5.42; in the data set on CHO it was 4.32. Moreover, the selectivity ratio in data set [2] is 13.
In the same order, the values of `CC(=O)O[C@H]1C[C@@]2(C)[C@@H](C[C@@H](O)[C@H]3[C@@]4(C)CC[C@@H](O)[C@@H](C)[C@@H]4CC[C@@]32C)/C1=C(\CCC=C(C)C)C(=O)NNS(=O)(=O)c1ccc(C)cc1` are 4.87, 4.32 and 4.
In the same order, the values of `CC(=O)O[C@H]1C[C@@]2(C)[C@@H](C[C@@H](O)[C@H]3[C@@]4(C)CC[C@@H](O)[C@@H](C)[C@@H]4CC[C@@]32C)/C1=C(\CCC=C(C)C)C(=O)NNC(=O)c1cccs1` are 5.08, 4.10 and 9.
In the case of `CCCCS(=O)(=O)NNC(=O)/C(CCC=C(C)C)=C1\[C@@H](OC(C)=O)C[C@@]2(C)[C@H]1C[C@@H](O)[C@H]1[C@@]3(C)CC[C@@H](O)[C@@H](C)[C@@H]3CC[C@@]12C`, the pIC50 with Plasmodium falciparum [1] was 5.10; in the data set with CHO, 4.30. Moreover, in data set [2], the selectivity ratio stood at 6.
As to `CCS(=O)(=O)NNC(=O)/C(CCC=C(C)C)=C1\[C@@H](OC(C)=O)C[C@@]2(C)[C@H]1C[C@@H](O)[C@H]1[C@@]3(C)CC[C@@H](O)[C@@H](C)[C@@H]3CC[C@@]12C`, the pIC50 was 4.91 with Plasmodium falciparum [1] and 4.11 in the data set with CHO. Moreover, the selectivity ratio in data set [2] was 6.
Turning to `CC(=O)O[C@H]1C[C@@]2(C)[C@@H](C[C@@H](O)[C@H]3[C@@]4(C)CC[C@@H](O)[C@@H](C)[C@@H]4CC[C@@]32C)/C1=C(\CCC=C(C)C)C(N)=O`, the pIC50 with Plasmodium falciparum [1] was 4.44; in the data set on CHO, 3.95. Also, the selectivity ratio in data set [2] turned out to be 3.
In the case of `CC(=O)O[C@H]1C[C@@]2(C)[C@@H](C[C@@H](O)[C@H]3[C@@]4(C)CC[C@@H](O)[C@@H](C)[C@@H]4CC[C@@]32C)/C1=C(\CCC=C(C)C)C(=O)NS(C)(=O)=O`, the values for the pIC50 in the data set on Plasmodium falciparum [1] and in the data set with CHO were less than 4.82 and less than 3.77, respectively.
With `CC(=O)O[C@H]1C[C@@]2(C)[C@@H](C[C@@H](O)[C@H]3[C@@]4(C)CC[C@@H](O)[C@@H](C)[C@@H]4CC[C@@]32C)/C1=C(\CCC=C(C)C)C(=O)NN`, the negative logarithm of the IC50 (pIC50) in the data set with Plasmodium falciparum [1] was 4.67; in the data set on CHO it was 3.95. The selectivity ratio in data set [2] was found to be 5.
In the same order, the values of `CCCS(=O)(=O)NNC(=O)/C(CCC=C(C)C)=C1\[C@@H](OC(C)=O)C[C@@]2(C)[C@H]1C[C@@H](O)[C@H]1[C@@]3(C)CC[C@@H](O)[C@@H](C)[C@@H]3CC[C@@]12C` are 5.24, 4.10 and 14.
In the same order, the values of `CC(=O)O[C@H]1C[C@@]2(C)[C@@H](C[C@@H](O)[C@H]3[C@@]4(C)CC[C@@H](O)[C@@H](C)[C@@H]4CC[C@@]32C)/C1=C(\CCC=C(C)C)C(=O)NNS(=O)(=O)c1ccc(Cl)cc1` are 4.50, 4.27 and 2.
In the same order, the values of `CC(=O)O[C@H]1C[C@@]2(C)[C@@H](C[C@@H](O)[C@H]3[C@@]4(C)CC[C@@H](O)[C@@H](C)[C@@H]4CC[C@@]32C)/C1=C(\CCC=C(C)C)c1nc(-c2ccc(F)cc2)no1` are 5.77, 4.11 and 46.
In the case of `CC(=O)O[C@H]1C[C@@]2(C)[C@@H](C[C@@H](O)[C@H]3[C@@]4(C)CC[C@@H](O)[C@@H](C)[C@@H]4CC[C@@]32C)/C1=C(\CCC=C(C)C)c1n[nH]c(=O)o1`, the negative-log IC50 (pIC50) in the data set on Plasmodium falciparum [1] was 5.04; in the data set with CHO, 4.09. The selectivity ratio in data set [2] is 9.
For the compound `CC(=O)O[C@H]1C[C@@]2(C)[C@@H](C[C@@H](O)[C@H]3[C@@]4(C)CC[C@@H](O)[C@@H](C)[C@@H]4CC[C@@]32C)/C1=C(\CCC=C(C)C)C(=O)O` [FUSIDIC ACID], the negative logarithm of the IC50 (pIC50) with Plasmodium falciparum [1] is 4.23; with CHO it was less than 3.71; in the data set with Plasmodium falciparum [3], 4.28. The selectivity ratio in data set [2] was more than 3. Moreover, the Stability entry in data set [4] is given as “Stable”.
Take `CC(=O)O[C@H]1C[C@@]2(C)[C@@H](C[C@@H](O)[C@H]3[C@@]4(C)CC[C@@H](O)[C@@H](C)[C@@H]4CC[C@@]32C)/C1=C(\CCC=C(C)C)C(=O)NS(=O)(=O)c1ccc(F)c(F)c1`: the pIC50 was 5.14 in the data set on Plasmodium falciparum [1] and 4.09 in the data set with CHO. For the same compound, in data set [2], the selectivity ratio was 11.
Regarding `C[C@H]1[C@H](OC(=O)CCC(=O)O)O[C@@H]2O[C@@]3(C)CC[C@H]4[C@H](C)CC[C@@H]1[C@@]24OO3` [ARTESUNATE], in the data set on Plasmodium falciparum [1], the pIC50 is 8.40.
As for `CC(=O)O[C@H]1C[C@@]2(C)[C@@H](C[C@@H](O)[C@H]3[C@@]4(C)CC[C@@H](O)[C@@H](C)[C@@H]4CC[C@@]32C)/C1=C(\CCC=C(C)C)C(=O)NS(=O)(=O)c1ccccc1`, the pIC50 in the data set on Plasmodium falciparum [1] was less than 4.82; in the data set on CHO, 4.02.
For the compound `CCc1noc(/C(CCC=C(C)C)=C2\[C@@H](OC(C)=O)C[C@@]3(C)[C@H]2C[C@@H](O)[C@H]2[C@@]4(C)CC[C@@H](O)[C@@H](C)[C@@H]4CC[C@@]23C)n1`, the figures for the negative logarithm of the IC50 (pIC50) with Plasmodium falciparum [1] and in the data set with CHO were 5.72 and 4.14, respectively. For the same compound, the selectivity ratio in data set [2] was 38.
In the same order, the values of `CC(=O)O[C@H]1C[C@@]2(C)[C@@H](C[C@@H](O)[C@H]3[C@@]4(C)CC[C@@H](O)[C@@H](C)[C@@H]4CC[C@@]32C)/C1=C(\CCC=C(C)C)c1n[nH]c(=S)o1` are 5.15, 4.15 and 10.
Turning to `CCCc1noc(/C(CCC=C(C)C)=C2\[C@@H](OC(C)=O)C[C@@]3(C)[C@H]2C[C@@H](O)[C@H]2[C@@]4(C)CC[C@@H](O)[C@@H](C)[C@@H]4CC[C@@]23C)n1`, the figures for the pIC50 in the data set on Plasmodium falciparum [1] and with CHO were 5.68 and 4.17, respectively. Besides, the selectivity ratio in data set [2] came to 32.
Turning to `CC(=O)O[C@H]1C[C@@]2(C)[C@@H](C[C@@H](O)[C@H]3[C@@]4(C)CC[C@@H](O)[C@@H](C)[C@@H]4CC[C@@]32C)/C1=C(\CCC=C(C)C)C(=O)Nc1nn[nH]n1`, the values for the negative logarithm of the IC50 (pIC50) with Plasmodium falciparum [1] and in the data set on CHO were less than 4.82 and less than 3.77, respectively.
For the compound `CC(=O)O[C@H]1C[C@@]2(C)[C@@H](C[C@@H](O)[C@H]3[C@@]4(C)CC[C@@H](O)[C@@H](C)[C@@H]4CC[C@@]32C)/C1=C(\CCC=C(C)C)C(=O)NC#N`, the pIC50 was 4.97 with Plasmodium falciparum [1] and less than 3.73 in the data set with CHO. The selectivity ratio in data set [2] was more than 17.

Source of the values: ChEMBL document CHEMBL3774384, “Synthesis of fusidic acid bioisosteres as antiplasmodial agents and molecular docking studies in the binding site of elongation factor-G” (Medchemcomm, 2015).
